The assay concerns RSV strain A2. In words: RSV antiviral cytoprotection assay in Hep2 cells (96-well and 384-well format, Cell TiterGlo read-out). It is filed as cell-based, Respiratory Syncytial Virus (RSV). As to conditions: human respiratory syncytial virus; for inhibition at 0.5 µM: HEp-2, 0.5 uM; for inhibition at 0.5 µM / inhibition at 1 µM: RSV-induced cytopathic effect in Hep2 cells, calculated from fitted dose response curve, normalized to 0% and 100%; for EC50: HEp-2, RSV-induced cytopathic effects, Hep2 cells, class symbols; for inhibition at 1 µM: HEp-2, 1 uM.

As a reminder, the inhibition is how much of the control response was suppressed. Usually EC50 stands for the concentration needed to bring the measured effect to its halfway point. For the molecule `Cc1cn2nc([C@@H]3CCCCN3C(=O)c3cccc(N)c3)cc2nc1N1CC[C@H](C#N)C1` [Compound 153], the inhibition at 0.5 µM was 100% and the EC50 was in the range of 0.1 to 100 nM.
Consider `CS(=O)(=O)Nc1ccc(Cl)cc1C(=O)N1CCCC[C@H]1c1cc2nc(N3CC(O)C3)cc(N3CC4(COC4)C3)n2n1` [Compound 58], for which the inhibition at 0.5 µM was 99% and the EC50 fell in the range of 0.1 to 100 nM.
The corresponding values for `CS(=O)(=O)Nc1ccc(Cl)cc1C(=O)N1CCCC[C@H]1c1cc2nc(N3CCC3)cc(N3CCC(O)CC3)n2n1` [Compound 44] are 100% and 0.1 to 100 nM.
Take `COC(=O)NC(C(=O)N1CCCC[C@H]1c1cc2nc(C3CC3)cc(C)n2n1)c1ccccc1` (some centres unmarked) [Compound 118]: the inhibition at 0.5 µM was 99% and the EC50 lay in the range of 0.1 to 100 nM.
The corresponding values for `Cc1cn2nc([C@@H]3CC[C@H](C)CN3C(=O)c3cc(Cl)ccc3NS(C)(=O)=O)cc2nc1N1CC(O)C1` [Compound 135] are 100% and 0.1 to 100 nM.
The corresponding values for `Cc1cn2nc([C@@H]3CCCCN3C(=O)c3ccc4cccnc4c3)cc2nc1N1CC[C@H](N)C1` [Compound 343] are 60% and 101 to 1000 nM.
Regarding `Cc1cn2nc([C@@H]3CCCCN3C(=O)c3ccco3)cc2nc1N1CC[C@H](N)C1` [Compound 258], the inhibition at 0.5 µM was 100% and the EC50 fell in the range of 0.1 to 100 nM.
For the molecule `Cc1cn2nc([C@@H]3CCCCN3C(=O)c3cc(-c4cccs4)n[nH]3)cc2nc1N1CC[C@H](N)C1` [Compound 404], the inhibition at 0.5 µM is 100% and the EC50 was in the range of 0.1 to 100 nM.
Take `COc1ccc(NS(C)(=O)=O)c(C(=O)N2CCCC[C@H]2c2cc3[nH]c(C)c(C)c(=O)n3n2)c1` [Compound 10]: the inhibition at 0.5 µM is 94%, the inhibition at 1 µM is 99% and the concentration giving a half-maximal response (EC50) fell in the range of 0.1 to 100 nM.
Regarding `Cc1cn2nc([C@@H]3CCCCN3C(=O)c3cc(Cl)ccc3NS(C)(=O)=O)cc2nc1N1CC(OC(=O)CN)C1` [Compound 172], the inhibition at 0.5 µM was 100% and the EC50 lay in the range of 0.1 to 100 nM.
The matching figures for `Cc1cn2nc([C@@H]3CCCCN3C(=O)c3nn(C)c4ccccc34)cc2nc1N1CC[C@H](N)C1` [Compound 357]: 82% and 101 to 1000 nM.
The corresponding values for `Cc1cn2nc([C@@H]3CCCCN3C(=O)c3cc(Cl)ccc3NS(C)(=O)=O)cc2nc1N1CC(OC(=O)CCC(=O)O)C1` [Compound 144] are 99% and 0.1 to 100 nM.
Regarding `Cc1[nH]c2cc([C@@H]3C[C@H](C)CCN3C(=O)c3cc(F)ccc3NS(C)(=O)=O)nn2c(=O)c1C` [Compound 21], the inhibition at 0.5 µM is 4%, the inhibition at 1 µM is 10% and the EC50 was 1000 to 10000 nM.
Consider `Cc1cn2nc([C@@H]3CCCCN3C(=O)c3cnn(C)c3C)cc2nc1N1CC[C@H](N)C1` [Compound 279], for which the inhibition at 0.5 µM is 63% and the concentration for a half-maximal effect (EC50) was 101 to 1000 nM.
For the molecule `Cc1cn2nc([C@@H]3CCCCN3C(=O)c3ocnc3C)cc2nc1N1CC[C@H](N)C1` [Compound 265], the inhibition at 0.5 µM is 100% and the EC50 fell in the range of 0.1 to 100 nM.
The corresponding values for `Cc1cn2nc([C@@H]3CCCCN3C(=O)c3cc4c(s3)CCCC4)cc2nc1N1CC[C@H](N)C1` [Compound 370] are 99% and 0.1 to 100 nM.
Turning to `Cc1cn2nc([C@@H]3CCCCN3C(=O)c3cc(Cl)ccc3NS(C)(=O)=O)cc2nc1N1CCC[C@H]1C#N` [Compound 200], the inhibition at 0.5 µM is 95% and the EC50 lay in the range of 0.1 to 100 nM.
The matching figures for `Cc1cn2nc([C@@H]3CCCCN3C(=O)c3ccsc3)cc2nc1N1CC[C@H](N)C1` [Compound 267]: 99% and 0.1 to 100 nM.
The matching figures for `Cc1cn2nc([C@@H]3CCCCN3C(=O)c3ccc(-c4cccnc4)cc3)cc2nc1N1CC[C@H](N)C1` [Compound 408]: 59% and 101 to 1000 nM.
As for `CC(=O)Nc1c(Cl)cc(C)cc1C(=O)N1CCCC[C@H]1c1cc2nc(C)c(C)c(N(C)C)n2n1` [Compound 246], the inhibition at 0.5 µM is 98% and the EC50 was 0.1 to 100 nM.
`Cc1cn2nc([C@@H]3CCCCN3C(=O)c3cccc(F)c3F)cc2nc1N1CC[C@H](N)C1` [Compound 307]: the inhibition at 0.5 µM is 100% and the EC50 was in the range of 0.1 to 100 nM.
The corresponding values for `CS(=O)(=O)Nc1ccc(Cl)cc1C(=O)N1CCCC[C@H]1c1cc2nc(N3CCCO3)cc(N3CCOCC3)n2n1` [Compound 70] are 99% and 0.1 to 100 nM.
The corresponding values for `CC(=O)Nc1ccc(C)cc1C(=O)N1CCCC[C@H]1c1cc2nc(N3CC[C@H](N)C3)c(C)cn2n1` [Compound 169] are 100% and 0.1 to 100 nM.
As to `CC(=O)Nc1c(Cl)ccc(Cl)c1C(=O)N1CCCC[C@H]1c1cc2[nH]c(C)c(C)c(=O)n2n1` [Compound 245], the inhibition at 0.5 µM was 92% and the EC50 was 0.1 to 100 nM.
Take `Cc1cn2nc([C@@H]3CC[C@H](C)CN3C(=O)c3cc(Cl)ccc3NS(C)(=O)=O)cc2nc1N1CC[C@@H](O)C1` [Compound 136]: the inhibition at 0.5 µM is 100% and the concentration giving a half-maximal response (EC50) was 0.1 to 100 nM.
As to `CCOc1cccc(C(=O)N2CCCC[C@H]2c2cc3nc(N4CC[C@H](N)C4)c(C)cn3n2)c1` [Compound 319], the inhibition at 0.5 µM is 100% and the EC50 was in the range of 0.1 to 100 nM.
As to `Cc1cn2nc([C@@H]3CCCCN3C(=O)c3cccn4c(C)nnc34)cc2nc1N1CC[C@H](N)C1` [Compound 358], the inhibition at 0.5 µM was 100% and the EC50 fell in the range of 0.1 to 100 nM.
With `Cc1ccc(NS(C)(=O)=O)c(C(=O)N2CCCC[C@H]2c2cc3nc(C)c(C)c(C#N)n3n2)c1` [Compound 103], the inhibition at 0.5 µM was 98% and the concentration giving a half-maximal response (EC50) lay in the range of 0.1 to 100 nM.
With `Cc1cn2nc([C@@H]3CCCCN3C(=O)c3ccccc3OC(F)F)cc2nc1N1CC[C@H](N)C1` [Compound 379], the inhibition at 0.5 µM was 100% and the EC50 fell in the range of 0.1 to 100 nM.
The corresponding values for `CC(=O)Nc1ccc(Cl)cc1C(=O)N1CCCC[C@H]1c1cc2nc(C3CC3)cc(C)n2n1` [Compound 66] are 99% and 0.1 to 100 nM.
The matching figures for `Cc1cn2nc([C@@H]3CCCCN3C(=O)c3cccnc3F)cc2nc1N1CC[C@H](N)C1` [Compound 282]: 100% and 0.1 to 100 nM.
The matching figures for `Cc1ccc(NS(C)(=O)=O)c(C(=O)N2CCCC[C@H]2c2cc3nc(C)c(C)c(NC4CC4)n3n2)c1` [Compound 102]: 98% and 0.1 to 100 nM.
As to `CCn1nccc1C(=O)N1CCCC[C@H]1c1cc2nc(N3CC[C@H](N)C3)c(C)cn2n1` [Compound 278], the inhibition at 0.5 µM was 99% and the concentration for a half-maximal effect (EC50) is 0.1 to 100 nM.
The corresponding values for `Cc1cc(N2CC[C@@H](O)C2)nc2cc([C@@H]3CCCCN3C(=O)c3cc(Cl)ccc3NS(C)(=O)=O)nn12` [Compound 48] are 99% and 0.1 to 100 nM.
For the molecule `CS(=O)(=O)Nc1ccc(Cl)cc1C(=O)N1CCCC[C@H]1c1cc2nc(N3CCC3)cc(N3CC4(COC4)C3)n2n1` [Compound 75], the inhibition at 0.5 µM is 100% and the EC50 lay within 0.1 to 100 nM.
The corresponding values for `Cc1cn2nc([C@@H]3CCCCN3C(=O)c3cc(C4CC4)[nH]n3)cc2nc1N1CC[C@H](N)C1` [Compound 297] are 95% and 0.1 to 100 nM.

The record behind these values is US9238039B2, “Pyrazolo[1,5-A]pyrimidines for antiviral treatment” (Gilead Sciences, Inc., priority 2010, dated 2016).
